Patent publication US6682892B2, “Method for treating herpes viruses” (priority 2000, dated 2004)

Experiments:
HSV-2 186-M1 (V828A) = assay: Plaque reduction assay, 4-oxo-DHQ resistant HSV-2 186-M1; assay type: cell-based; conditions: Table 2, mutant V828A
Description: Antiviral activity of compounds against herpesviruses such as HSV-1, HSV-2, or HCMV can be measured using plaque reduction assays. 0.1 ml of media containing approximately 50 PFU of virus is added to each well of a 24-well cell culture dish containing a confluent monolayer of cells (Vero cells for HSV-1 and HSV-2, HFF cells for HCMV). Compounds are dissolved in 100% DMSO and diluted in 100% DMSO as 200× stocks of the desired final drug concentration. Typically 5-6 two-fold dilutions are prepared for each compound. Dilutions of compounds are then added to media containing 0.8% CMC resulting in a final 1× drug concentration. After the virus-infected cells have incubated for 1 h at 37° C., the virus innoculum is removed and 1 ml of media containing 0.8% CMC and the various concentrations of compound is added to each well of the dish. The dish is incubated at 37° C. for approximately 2-3 days (HSV-1 and HSV-2) or 6-9 days (HCMV) to allow sufficient growth of virus to form plaques in the cell monolayer. Plaques can be observed and counted microscopically or by staining the cells with 0.1% crystal violet in 20% ethanol. […] The IC50 values are calculated by plotting the per cent inhibition vs. concentration of compound using EXCEL software for linear regression. […]

HSV-1 KOS-M1 (V823A) = assay: Plaque reduction assay, 4-oxo-DHQ resistant HSV-1 KOS-M1; assay type: cell-based; conditions: Table 2, mutant V823A; read-out: IC50 (uM), HSV-1 Kos-M1
Description: (§1) Antiviral activity of compounds against herpesviruses such as HSV-1, HSV-2, or HCMV can be measured using plaque reduction assays. 0.1 ml of media containing approximately 50 PFU of virus is added to each well of a 24-well cell culture dish containing a confluent monolayer of cells (Vero cells for HSV-1 and HSV-2, HFF cells for HCMV). Compounds are dissolved in 100% DMSO and diluted in 100% DMSO as 200× stocks of the desired final drug concentration. Typically 5-6 two-fold dilutions are prepared for each compound. Dilutions of compounds are then added to media containing 0.8% CMC resulting in a final 1× drug concentration. After the virus-infected cells have incubated for 1 h at 37° C., the virus innoculum is removed and 1 ml of media containing 0.8% CMC and the various concentrations of compound is added to each well of the dish. The dish is incubated at 37° C. for approximately 2-3 days (HSV-1 and HSV-2) or 6-9 days (HCMV) to allow sufficient growth of virus to form plaques in the cell monolayer. Plaques can be observed and counted microscopically or by staining the cells with 0.1% crystal violet in 20% ethanol. […] Antiviral activity of a compound is expressed as the concentration of compound predicted to reduce the number of plaques in a well by 50% (IC50). The IC50 values are calculated by plotting the per cent inhibition vs. concentration of compound using EXCEL software for linear regression.
Vero cells are plated out at a density of 3.5×10^5 cells per well in a six well tissue culture plate. Cells are infected with HSV-1 KOS at a multiplicity of infection (moi) of 0.1 pfu/cell and 1 h post infection the cells are overlayed with 3 ml media containing 20 uM of a 4-oxo-DHQ. Cultures are incubated for 20 h at 37° C., freeze/thawed to release cell-associated virus, and 0.1 ml of culture is used to infect a new monolayer of Vero cells (one passage). Serial passage is repeated seven times in the presence of 20 uM drug. Virus isolates are then plaque purified three times prior to preparation of stocks. 4-oxo-DHQ resistant HSV-1 and HSV-2 may also be selected by the marker transfer method described below using wild-type HSV DNA and the corresponding mutant HSV polymerase gene.
(§2) A panel of viruses consisting of four strains of HSV-1 (KOS, F, DJL, Patton) and three strains of HSV-2 (MS, 35D, 186) are tested in a plaque reduction assay against four different 4-oxo-DHQ compounds (#1, 2, 4, 5 as shown in FIG. 1), and one 4-oxo-DHTP compound (#3 as shown in FIG. 1) and against Acyclovir. The six drugs inhibited replication of the seven virus strains with IC50 values ranging from 2-10 μM (Table 1). In order to select for 4-oxo-DHQ resistant mutants, HSV-1 strains KOS, F, and DJL along with HSV-2 strains 186 and MS are serially passaged in the presence of 20 uM compound 1. Following the seventh passage, 4-oxo-DHQ resistant virus from each strain are plaque purified three times and high-titer stocks are made.

HSV-2 186 = assay: Plaque reduction assay, HSV-2 186; assay type: cell-based; conditions: Table 1, plaque reduction, Vero cells
Description: as §1, §2

[1] = biological target: T1, HCMV V823A/V824L polymerase (Human cytomegalovirus, UniProt P08546, V823A/V824L); assay: In vitro polymerase assay, mutant HCMV polymerase V823A/V824L; assay type: biochemical
T1 construct: made in house
T1 sequence (P08546 1-1242 V823A/V824L): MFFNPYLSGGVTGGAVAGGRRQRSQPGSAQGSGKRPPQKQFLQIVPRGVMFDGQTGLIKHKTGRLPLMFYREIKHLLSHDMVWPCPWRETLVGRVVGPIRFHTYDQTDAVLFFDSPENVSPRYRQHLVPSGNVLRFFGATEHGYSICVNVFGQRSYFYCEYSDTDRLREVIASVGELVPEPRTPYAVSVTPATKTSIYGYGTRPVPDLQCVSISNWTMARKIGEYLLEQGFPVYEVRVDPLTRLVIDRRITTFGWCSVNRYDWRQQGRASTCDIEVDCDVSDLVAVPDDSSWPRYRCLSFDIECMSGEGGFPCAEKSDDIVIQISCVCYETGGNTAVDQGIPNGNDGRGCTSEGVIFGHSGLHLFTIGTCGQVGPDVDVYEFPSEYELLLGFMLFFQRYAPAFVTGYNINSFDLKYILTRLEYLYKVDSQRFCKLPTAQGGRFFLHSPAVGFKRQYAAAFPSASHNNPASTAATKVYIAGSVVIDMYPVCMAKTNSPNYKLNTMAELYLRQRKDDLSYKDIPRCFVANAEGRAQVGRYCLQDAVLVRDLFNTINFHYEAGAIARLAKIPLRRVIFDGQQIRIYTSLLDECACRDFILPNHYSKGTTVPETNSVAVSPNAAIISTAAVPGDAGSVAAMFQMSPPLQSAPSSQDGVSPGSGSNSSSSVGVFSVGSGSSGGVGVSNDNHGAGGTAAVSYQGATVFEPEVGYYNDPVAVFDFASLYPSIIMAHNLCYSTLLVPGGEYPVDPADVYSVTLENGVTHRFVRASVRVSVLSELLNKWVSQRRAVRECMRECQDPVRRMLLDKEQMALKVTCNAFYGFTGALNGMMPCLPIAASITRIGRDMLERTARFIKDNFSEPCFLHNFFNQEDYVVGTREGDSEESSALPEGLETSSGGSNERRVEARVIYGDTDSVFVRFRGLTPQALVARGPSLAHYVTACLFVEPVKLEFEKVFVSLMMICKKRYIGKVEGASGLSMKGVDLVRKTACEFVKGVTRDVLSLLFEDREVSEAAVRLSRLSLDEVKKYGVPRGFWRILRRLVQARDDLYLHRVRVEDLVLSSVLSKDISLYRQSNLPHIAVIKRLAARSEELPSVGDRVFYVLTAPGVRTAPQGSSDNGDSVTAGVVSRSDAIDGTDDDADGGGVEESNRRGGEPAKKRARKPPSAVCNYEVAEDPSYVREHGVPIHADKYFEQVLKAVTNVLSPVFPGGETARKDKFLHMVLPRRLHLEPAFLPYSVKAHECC
Description: In order to select for a 4-oxo-DHQ HCMV resistant mutant, virus (strain AD169) is serially passaged in the presence of 20 uM a 4-oxo-DHQ. […] In order to determine if both valines need to be changed in order to confer resistance to the 4-oxo-DHQ's, in vitro polymerase assays are done using mutant HCMV polymerases containing either V823A or V823A plus V824L (Table 3).

HSV-2 MS = assay: Plaque reduction assay, HSV-2 MS; assay type: cell-based; conditions: Table 1, plaque reduction, Vero cells; read-out: IC50 (uM), HSV-2 MS
Description: as §1, §2

Cn1cc(C(=O)NCc2ccc(Cl)cc2)c(=O)c2cc(/C=C\CO)cc(F)c21 [Compound 1] was tested, and the IC50 (HSV-2 186-M1 (V828A)) was > 20 µM, the IC50 (HSV-1 KOS-M1 (V823A)) was > 20 µM and the IC50 (HSV-2 186) was 2 µM. For the same compound, the IC50 ([1]; Table 3) was 42.9 µM, the “increase in resistance, HCMV V823A/V824L polymerase” value ([1]; relative to wild type) was “*Mutation of the amino acid from valine to alanine and amino acid 824 from valine to leucine results in an 9-fold increase in resistance, relative to wild type” and the IC50 (HSV-2 MS) was 2 µM.
